The text below walks through data of ChEMBL document CHEMBL3886637, “Pyridine-2-amides useful as CB2 agonists” (2016).

Each structure is given as a SMILES string. A value given as a limit tells only on which side of the number the result lay.

One test concerns the target Cannabinoid receptor 2 (Homo sapiens, UniProt P34972). Put plainly: (§1) cAMP Assay: CHO cells expressing human CB1 or CB2 receptors are seeded 17-24 hours prior to the experiment 50.000 cells per well in a black 96 well plate with flat clear bottom (Corning Costar #3904) in DMEM (Invitrogen No. 31331), 1×HT supplement, with 10% fetal calf serum and incubated at 5% CO2 and 37 °C. in a humidified incubator. The growth medium was exchanged with Krebs Ringer Bicarbonate buffer with 1 mM IBMX and incubated at 30 °C. for 30 min. Compounds were added to a final assay volume of 100 μl and incubated for 30 min at 30 °C. Using the cAMP-Nano-TRF detection kit the assay (Roche Diagnostics) was stopped by the addition of 50 μl lysis reagent (Tris, NaCl, 1.5% Triton X100, 2.5% NP40, 10% NaN3) and 50 μl detection solutions (20 μM mAb Alexa700-cAMP 1:1, and 48 μM Ruthenium-2-AHA-cAMP) and shaken for 2 h at room temperature. The time-resolved energy transfer is measured by a TRF reader (Evotec Technologies GmbH), equipped with a ND:YAG laser as excitation source. The plate is measured twice with the excitation at 355 nm and at the emission with a delay of 100 ns and a gate of 100 ns, total exposure time 10 s at 730 (bandwidth 30 nm) or 645 nm (bandwidth 75 nm), respectively. The FRET signal is calculated as follows: FRET=T730-Alexa730-P(T645-B645) with P=Ru730-B730/Ru645-B645, where T730 is the test well measured at 730 nM, T645 is the test well measured at 645 nm, B730 and B645 are the buffer controls at 730 nm and 645 nm, respectively. cAMP content is determined from the function of a standard curve spanning from 10 μM to 0.13 nM cAMP. Format: functional, cell-based.

The target in a further test is Cannabinoid receptor 1 (Homo sapiens, UniProt P21554). The test is described as §1. Format: functional, cell-based.
Chain of Cannabinoid receptor 1 (P21554 whole entry): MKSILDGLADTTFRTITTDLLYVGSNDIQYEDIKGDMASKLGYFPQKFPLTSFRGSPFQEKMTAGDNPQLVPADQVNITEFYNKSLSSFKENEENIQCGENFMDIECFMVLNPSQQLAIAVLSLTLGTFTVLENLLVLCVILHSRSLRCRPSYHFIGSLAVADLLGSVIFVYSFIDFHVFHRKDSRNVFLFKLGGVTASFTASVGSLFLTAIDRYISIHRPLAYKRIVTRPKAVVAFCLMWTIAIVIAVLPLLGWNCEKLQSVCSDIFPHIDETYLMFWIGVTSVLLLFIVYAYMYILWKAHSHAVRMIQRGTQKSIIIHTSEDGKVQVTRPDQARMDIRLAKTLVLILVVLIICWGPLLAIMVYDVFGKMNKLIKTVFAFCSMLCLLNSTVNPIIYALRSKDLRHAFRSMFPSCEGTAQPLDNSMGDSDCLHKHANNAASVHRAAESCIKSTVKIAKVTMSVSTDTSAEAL

Chain of Cannabinoid receptor 2 (P34972 whole entry): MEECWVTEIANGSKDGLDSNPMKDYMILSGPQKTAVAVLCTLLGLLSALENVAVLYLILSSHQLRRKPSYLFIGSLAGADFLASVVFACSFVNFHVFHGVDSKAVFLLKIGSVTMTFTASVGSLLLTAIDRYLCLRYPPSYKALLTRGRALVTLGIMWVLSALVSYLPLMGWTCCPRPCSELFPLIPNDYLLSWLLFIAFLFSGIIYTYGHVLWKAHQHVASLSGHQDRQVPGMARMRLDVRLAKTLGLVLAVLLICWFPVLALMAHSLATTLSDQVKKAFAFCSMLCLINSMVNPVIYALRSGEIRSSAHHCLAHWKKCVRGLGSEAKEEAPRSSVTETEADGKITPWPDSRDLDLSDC

A word on the EC50: it is the concentration that produces a half-maximal response. Regarding `CC1(C)CC(C(N)=O)N(C(=O)c2ccc(N3CC(F)(F)C3)c(OCC3CC3)n2)C1` (stereo not drawn), the EC50 at Cannabinoid receptor 2 was 6.6 nM.
Turning to `CC(C)N(C(=O)c1ccc(N2CC(F)(F)C2)c(OCC2CC2)n1)C(C)C`, the EC50 on Cannabinoid receptor 1 is more than 10000 nM; on Cannabinoid receptor 2 it was 12.6 nM.
